{"source": "patent US20040186085A1", "about": "“Composition containing a steroid and a glycol” (priority 2001, published 2004)", "key": {"fibroblast": {"system": "fibroblast", "details": "cited from earlier work"}, "human keratinocytes": {"system": "human keratinocytes", "details": "cited from earlier work"}, "skin": {"system": "skin", "details": "rat; cited from earlier work"}, "[1]": {"experiment": "Solubility of DHEA at ambient temperature in different solvents (HPLC of supernatant)", "assay_type": "physicochemical", "details": "ambient temperature (25° C.), after 24 hours", "description": "The solubility of DHEA was evaluated at ambient temperature in different solvents. For this purpose the DHEA was dispersed in excess in the solvent in question, which had been brought to 60° C. beforehand. This temperature was maintained for one hour, with stirring using a magnetic bar. The suspension was subsequently returned to ambient temperature (25° C.). After 24 hours the suspension was centrifuged in order to remove the undissolved DHEA crystals. The supernatant was taken and checked for the absence of DHEA crystals by cross-polarized light microscopy. This supernatant was subsequently analysed by HPLC. The amount of DHEA detected is taken to correspond to its maximum solubility in the solvent in question."}}}
{"smiles": "C[C@]12CC[C@H](O)CC1=C[C@@H](O)[C@@H]1[C@@H]2CC[C@]2(C)C(=O)CC[C@@H]12", "note": "[7α-hydroxy-DHEA]", "values": [{"measurement": "fibroblast proliferation", "setting": "fibroblast", "result": "increase"}, {"measurement": "viability of human keratinocytes", "setting": "human keratinocytes", "result": "increase"}, {"measurement": "elastin content and collagen content of the skin", "setting": "skin", "result": "increases"}, {"measurement": "thickness of the dermis", "setting": "skin", "result": "increases"}]}
{"smiles": "C[C@]12CC[C@H](O)CC1=CC[C@@H]1[C@@H]2CC[C@]2(C)C(=O)CC[C@@H]12", "note": "[DHEA, dehydroepiandrosterone]", "values": [{"measurement": "DHEA solubility", "setting": "[1]; solvent Dipropylene glycol", "result": 10.48, "unit": "% by weight"}, {"measurement": "DHEA solubility", "setting": "[1]; solvent Glycerol", "result": 0.15, "unit": "% by weight"}, {"measurement": "DHEA solubility", "setting": "[1]; solvent PEG-400", "result": 3.67, "unit": "% by weight"}, {"measurement": "DHEA solubility", "setting": "[1]; solvent Propylene glycol", "result": 5.88, "unit": "% by weight"}, {"measurement": "DHEA solubility", "setting": "[1]; solvent Sorbitol", "result": 0.05, "unit": "% by weight"}]}
